Converted amounts (≈) assume the structure as drawn. One block for each compound: values may come before it.
Assays:
Assay in all cases: ≥ marks a high value that may be exact or a test limit, other limits are often not marked, values filed in µg/mL are converted to µM
[1] = test system: Nocardia brasiliensis IP16-80
[2] = test system: Aspergillus niger IP218-53
[3] = test system: Trichophyton rubrum IP2043-92
[4] = test system: Trichophyton simii J43 IP903-65
[5] = test system: Cryptococcus neoformans IP960-67
[6] = test system: Candida albicans IP886-65
[7] = test system: Trichophyton simii IP1063-74
[8] = test system: Aeromonas caviae IP67-16T
[9] = test system: Staphylococcus aureus IP76-25
[10] = test system: Cryptococcus neoformans IP962-67
[11] = test system: Trichophyton mentagrophytes IP877-71
Microsporum canis IP1194 = test system: Microsporum canis IP1194
[12] = test system: Saccharomyces cerevisiae IP118079
[13] = test system: Enterococcus faecalis IP103214
[14] = test system: Candida albicans IP884-65
[15] = test system: Aspergillus fumigatus IP1025-70
Escherichia coli IP76-24 = test system: Escherichia coli IP76-24
[16] = test system: Escherichia coli KCTC 1682
[17] = test system: Bacillus megaterium KCTC 1096
[18] = test system: Staphylococcus aureus KCTC 1621
[19] = test system: Pseudomonas aeruginosa KCTC 1637
[20] = test system: Bacillus subtilis KCTC 1918
Proteus vulgaris = test system: Proteus vulgaris
Fusarium oxysporum = test system: Fusarium oxysporum
Carnobacterium mobile = test system: Carnobacterium mobile
[21] = test system: Pseudomonas aeruginosa ATCC 27853
[22] = test system: Bacillus subtilis ICTA-07
[23] = test system: Acinetobacter calcoaceticus ATCC 2305-5
[24] = test system: Micrococcus luteus ATCC 4698
[25] = test system: Enterococcus faecalis WHO 14
[26] = test system: Yersinia enterocolitica ATCC 9610
[27] = test system: Pseudomonas aeruginosa U-31
[28] = test system: Bacillus subtilis PCI 219
[29] = test system: Escherichia coli NIHJ JC-2
[30] = test system: Staphylococcus aureus FDA 209P
[31] = test system: Bacillus subtilis var. niger ATCC 9372
[32] = test system: Bacillus anthracis Sterne 34F2
Escherichia coli K91BK = test system: Escherichia coli K91BK

Structure (SMILES): CC[C@H](C)[C@H](NC(=O)[C@H](CCCCN)NC(=O)[C@H](CCCCN)NC(=O)[C@@H](N)Cc1c[nH]c2ccccc12)C(=O)N1CCC[C@H]1C(=O)N[C@@H](CCCCN)C(=O)N[C@@H](Cc1ccccc1)C(=O)N[C@@H](CC(C)C)C(=O)N[C@@H](Cc1cnc[nH]1)C(=O)N[C@@H](CC(C)C)C(=O)N[C@@H](CC(C)C)C(=O)N[C@@H](CCCCN)C(=O)N[C@@H](CCCCN)C(=O)N[C@@H](Cc1ccccc1)C(N)=O [WKKIPKFLHLLKKF]
MIC [16]: 6.25 µM (≈ 11.4 µg/mL)
MIC [17]: 1.56 µM (≈ 2.85 µg/mL)
MIC [18]: 3.12 µM (≈ 5.7 µg/mL)
MIC [19]: 3.12 µM (≈ 5.7 µg/mL)
MIC [20]: 0.78 µM (≈ 1.42 µg/mL)
MIC (Proteus vulgaris): 12.5 µM (≈ 22.8 µg/mL)

Structure (SMILES): CSCC[C@H](N)C(=O)N[C@@H](C)C(=O)N[C@@H](CO)C(=O)N[C@@H](CCCN=C(N)N)C(=O)N[C@@H](C)C(=O)N[C@@H](C)C(=O)NCC(=O)N[C@@H](CC(C)C)C(=O)N[C@@H](C)C(=O)N[C@@H](C)C(=O)N[C@@H](CCCN=C(N)N)C(=O)N[C@@H](CC(C)C)C(=O)N[C@@H](C)C(=O)N[C@@H](CCCN=C(N)N)C(=O)N[C@@H](CC(C)C)C(=O)N[C@@H](C)C(=O)N[C@@H](CC(C)C)C(=O)N[C@@H](CCCN=C(N)N)C(=O)N[C@@H](C)C(=O)N[C@@H](CC(C)C)C(=O)O [MASRAAGLAARLARLALRAL]
MIC (Fusarium oxysporum): 1 µM (≈ 2.05 µg/mL)
MIC (Carnobacterium mobile): 0.05 µM (≈ 0.103 µg/mL)

Structure (SMILES): CC(C)C[C@H](NC(=O)[C@H](CC(C)C)NC(=O)[C@H](CC(C)C)NC(=O)[C@H](CCCCN)NC(=O)[C@H](CC(C)C)NC(=O)[C@H](CC(C)C)NC(=O)[C@H](CCCCN)NC(=O)[C@H](CC(C)C)NC(=O)[C@H](Cc1c[nH]c2ccccc12)NC(=O)[C@H](CC(C)C)NC(=O)[C@H](CCCCN)NC(=O)[C@H](CC(C)C)NC(=O)[C@H](CC(C)C)NC(=O)[C@H](CC(C)C)NC(=O)[C@H](CCCCN)NC(=O)[C@H](CC(C)C)NC(=O)[C@H](CC(C)C)NC(=O)[C@@H](N)CCCCN)C(=O)O [KLLKLLLKLWLKLLKLLL]
MIC [27]: ≥ 45.4 µM
MIC [28]: ≥ 45.4 µM
MIC [29]: ≥ 45.4 µM
MIC [30]: ≥ 45.4 µM

Structure (SMILES): CC(=O)N[C@@H](CCCCN)C(=O)N[C@@H](Cc1c[nH]c2ccccc12)C(=O)N[C@@H](CCCCN)C(=O)N[C@@H](CCCCN)C(=O)N[C@@H](CC(C)C)C(=O)N1CCC[C@H]1C(=O)N[C@@H](CCCCN)C(=O)N[C@@H](CCCCN)C(=O)N[C@@H](CC(C)C)C(=O)N[C@@H](CC(C)C)C(=O)N[C@@H](CCCCN)C(=O)N[C@@H](CC(C)C)C(=O)N[C@@H](CC(C)C)C(N)=O [KWKKLPKKLLKLL]
MIC [31]: 8.84 µM (≈ 14.8 µg/mL)
MIC [32]: ≥ 100 µM
MIC (Escherichia coli K91BK): ≥ 100 µM

Other lines, results leading:

MIC [1]: ≥ 40 µM
MIC [2]: 30 µM (≈ 85.2 µg/mL)
MIC [3]: 20 µM (≈ 56.8 µg/mL)
MIC [4]: 20 µM (≈ 56.8 µg/mL)
MIC [5]: 1 µM (≈ 2.84 µg/mL)
MIC [6]: 10 µM (≈ 28.4 µg/mL)
MIC [7]: 30 µM (≈ 85.2 µg/mL)
MIC [8]: ≥ 35 µM
MIC [9]: 2 µM (≈ 5.68 µg/mL)
MIC [10]: 1 µM (≈ 2.84 µg/mL)
MIC [11]: 20 µM (≈ 56.8 µg/mL)
MIC (Microsporum canis IP1194): 15 µM (≈ 42.6 µg/mL)
MIC [12]: 5 µM (≈ 14.2 µg/mL)
MIC [13]: ≥ 40 µM
MIC [14]: 10 µM (≈ 28.4 µg/mL)
MIC [15]: ≥ 70 µM
MIC (Escherichia coli IP76-24): ≥ 35 µM
Structure (SMILES): CC[C@H](C)[C@H](NC(=O)[C@H](CCCCN)NC(=O)[C@H](CO)NC(=O)[C@H](Cc1c[nH]c2ccccc12)NC(=O)[C@H](CC(C)C)NC(=O)CN)C(=O)N[C@@H](CCCCN)C(=O)N[C@H](C(=O)N[C@@H](C)C(=O)NCC(=O)N[C@@H](CCCCN)C(=O)N[C@@H](CO)C(=O)N[C@H](C(=O)N[C@@H](C)C(=O)N[C@@H](CCCCN)C(=O)N[C@@H](C)C(=O)N[C@@H](C)C(=O)N[C@@H](C)C(=O)N[C@@H](CCCCN)C(=O)N[C@@H](C)C(=O)N[C@@H](C)C(=O)N[C@H](C(=O)N[C@@H](CCCCN)C(=O)N[C@@H](C)C(=O)N[C@H](C(=O)N[C@H](C(=O)N[C@@H](CC(N)=O)C(=O)N[C@@H](C)C(=O)N[C@H](C(=O)O)C(C)C)[C@@H](C)O)C(C)C)C(C)C)C(C)C)[C@@H](C)O [GLWSKIKTAGKSVAKAAAKAAVKAVTNAV]

MIC [21]: 54 µM (≈ 398 µg/mL)
MIC [22]: 30 µM (≈ 221 µg/mL)
MIC [23]: 27 µM (≈ 199 µg/mL)
MIC [24]: 27 µM (≈ 199 µg/mL)
MIC [25]: ≥ 65 µM
MIC [26]: ≥ 46 µM
Structure (SMILES): CSCC[C@@H]1NC(=O)[C@H](Cc2c[nH]c3ccccc23)NC(=O)[C@H](C)NC(=O)[C@H](Cc2ccc(O)cc2)NC(=O)[C@@H]2CSSC[C@@H]3NC(=O)[C@H](CO)NC(=O)[C@H](Cc4ccc(O)cc4)NC(=O)[C@H](CCCCN)NC(=O)[C@@H](NC(=O)CNC(=O)[C@H](CC(=O)O)NC(=O)[C@H](CC(N)=O)NC(=O)CNC(=O)[C@@H](NC(=O)[C@H](CC(C)C)NC(=O)[C@H](Cc4ccc(O)cc4)NC(=O)CNC(=O)[C@H](CC(=O)O)NC(=O)[C@@H](N)CCCCN)C(C)C)CSSC[C@@H](C(=O)NCC(=O)N[C@@H](CCCN=C(N)N)C(N)=O)NC(=O)[C@H](CCCN=C(N)N)NC(=O)[C@H](CC(N)=O)NC(=O)[C@H]([C@@H](C)O)NC(=O)[C@H](C)NC(=O)[C@H](CCCN=C(N)N)NC(=O)[C@H](CC(N)=O)NC(=O)[C@H](Cc4c[nH]c5ccccc45)NC(=O)[C@H]([C@@H](C)O)NC(=O)[C@H](CCCCN)NC(=O)[C@H](C(C)C)NC(=O)[C@H](Cc4c[nH]c5ccccc45)NC(=O)[C@H](CC(N)=O)NC(=O)[C@@H]4CCCN4C(=O)[C@H](CCSC)NC(=O)[C@H](CO)NC(=O)[C@H](Cc4ccc(O)cc4)NC(=O)[C@@H]4CSSC[C@H](NC(=O)[C@H](CCC(=O)O)NC(=O)[C@H](CC(N)=O)NC(=O)[C@H](C)NC(=O)[C@H](CSSC[C@H](NC(=O)[C@H](C)NC1=O)C(=O)N[C@@H](Cc1ccc(O)cc1)C(=O)N4)NC(=O)[C@H](Cc1ccc(O)cc1)NC(=O)[C@H]([C@@H](C)O)NC(=O)CNC(=O)[C@@H]1CCCN1C(=O)[C@H](CCCN=C(N)N)NC(=O)[C@H]([C@@H](C)O)NC(=O)[C@H](Cc1ccccc1)NC3=O)C(=O)N[C@@H](CO)C(=O)N[C@@H](CCCN=C(N)N)C(=O)N[C@@H](C(C)C)C(=O)N[C@@H](CCCCN)C(=O)NCC(=O)N[C@@H](CCCCN)C(=O)N[C@@H](CC(=O)O)C(=O)NCC(=O)N[C@@H](Cc1ccc(O)cc1)C(=O)N2 [KDGYLVGNDGCKYSCFTRPGTYCANECSRVKGKDGYCYAWMACYCYSMPNWVKTWNRATNRCGR]
